Test systems include UACC-62 melanoma; UO-31 renal; SK-MEL-5 melanoma; MDA-MB-231 breast; CAKI-1 renal; HS 578T breast; A498 renal; OVCAR-5 ovarian; MALME-3M melanoma; MOLT-4 leukemia.
What all share (test): NCI-60 cell line screen, 48 h

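Following 48 hours of exposure in 96-well plates, responses at five concentrations were used to interpolate endpoints linearly. GI50 is the concentration that inhibits growth by half. TGI: total growth inhibition.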 Some results are limits rather than exact numbers.

Turning to `O=Nc1ccc(O)c2ccccc12`, the GI50 in the experiment with UACC-62 melanoma was 1.69 µM; with UO-31 renal it was 1.36 µM; with SK-MEL-5 melanoma, 1.65 µM; with MDA-MB-231 breast it was 2.93 µM; in the experiment on CAKI-1 renal, 1.63 µM; in the experiment on HS 578T breast, 0.868 µM. The GI50 in the experiment with A498 renal is 15.1 µM; in the experiment with OVCAR-5 ovarian, 2.13 µM; with MALME-3M melanoma it was 1.61 µM. Moreover, the TGI in the experiment with UACC-62 melanoma is 3.37 µM; with UO-31 renal, 3.37 µM; with SK-MEL-5 melanoma, 3.04 µM; with MDA-MB-231 breast, 20.4 µM; in the experiment on CAKI-1 renal it was 4.03 µM; in the experiment on HS 578T breast it was 4.18 µM. Besides, the TGI in the experiment on A498 renal was determined as 28.6 µM; in the experiment with OVCAR-5 ovarian, 4.21 µM; in the experiment with MALME-3M melanoma it was 3.62 µM.
As to `C/C1=C/C(=O)O[C@@H]2C[C@@H](CC[C@H](C)/C=C\C=C\CC1)O[C@@](O)([C@@H]1CSC(=O)N1CO)C2`, the GI50 is 0.0863 µM in the experiment with UACC-62 melanoma; 0.0241 µM in the experiment on UO-31 renal; 3.42 µM in the experiment with MOLT-4 leukemia; 0.222 µM in the experiment on SK-MEL-5 melanoma; 0.0634 µM with MDA-MB-231 breast; 0.0203 µM in the experiment on CAKI-1 renal. Moreover, the GI50 is 0.0174 µM in the experiment on HS 578T breast, 0.0183 µM in the experiment on A498 renal, 0.0367 µM in the experiment on OVCAR-5 ovarian and 0.0962 µM with MALME-3M melanoma. In addition, the TGI in the experiment on UACC-62 melanoma was 26.2 µM; in the experiment with UO-31 renal, 0.132 µM; with MOLT-4 leukemia, over 51.8 µM; in the experiment on SK-MEL-5 melanoma, 13.7 µM; in the experiment with MDA-MB-231 breast, over 60.4 µM; in the experiment on CAKI-1 renal, 0.382 µM. Besides, the TGI was 0.0606 µM with HS 578T breast, 0.0724 µM with A498 renal, over 33.9 µM in the experiment on OVCAR-5 ovarian and 21 µM in the experiment with MALME-3M melanoma.
With `COc1cc2c3c(c4ccc(OC)c(OC)c4c2cc1OC)CN1CCC[C@@H]1C3`, the TGI stood at 0.35 µM in the experiment on UACC-62 melanoma; 0.291 µM in the experiment with UO-31 renal; 0.252 µM with MOLT-4 leukemia; 0.324 µM in the experiment on SK-MEL-5 melanoma; 0.156 µM in the experiment with MDA-MB-231 breast; 1.1 µM in the experiment with CAKI-1 renal. Moreover, the TGI with HS 578T breast amounted to 0.593 µM; in the experiment with A498 renal it was 0.0681 µM; in the experiment with OVCAR-5 ovarian, 17.1 µM; in the experiment with MALME-3M melanoma, 0.509 µM.
Regarding `COc1ccc(CCN2CCCN3C2=Nc2ccccc2S3(=O)=O)cc1`, the GI50 is 0.744 µM in the experiment on UACC-62 melanoma; 0.913 µM in the experiment on UO-31 renal; 0.464 µM in the experiment on MOLT-4 leukemia; 0.357 µM with SK-MEL-5 melanoma; 1.68 µM with MDA-MB-231 breast; 0.73 µM with CAKI-1 renal. Moreover, the values for the GI50 in the experiment on HS 578T breast, in the experiment on A498 renal and in the experiment on OVCAR-5 ovarian were 0.577 µM, 0.195 µM and 20.2 µM, respectively. Further, the TGI in the experiment on UACC-62 melanoma was over 100 µM; in the experiment with UO-31 renal it was over 100 µM; in the experiment on MOLT-4 leukemia it was over 100 µM; in the experiment with SK-MEL-5 melanoma it was 16.4 µM; in the experiment with MDA-MB-231 breast, over 100 µM; in the experiment with CAKI-1 renal, over 100 µM. Moreover, the TGI in the experiment with HS 578T breast is over 100 µM; with A498 renal, 3.2 µM; with OVCAR-5 ovarian, over 100 µM.
Take `O=c1[nH]cc(/C=N\Nc2ccccc2)c(=O)[nH]1`: the TGI with UACC-62 melanoma, in the experiment with UO-31 renal, with SK-MEL-5 melanoma, with MDA-MB-231 breast, in the experiment with CAKI-1 renal and in the experiment with HS 578T breast was over 100 µM throughout. The TGI in the experiment on A498 renal, in the experiment with OVCAR-5 ovarian and in the experiment on MALME-3M melanoma was over 100 µM in each case.
As to `COc1ccccc1/C=C/C(=O)c1c(O)cc2occc2c1OC`, the GI50 is 23.7 µM with UACC-62 melanoma; over 100 µM with UO-31 renal; over 100 µM in the experiment with SK-MEL-5 melanoma; 33.1 µM in the experiment with MDA-MB-231 breast; over 100 µM in the experiment with CAKI-1 renal; 38.2 µM in the experiment on HS 578T breast. Further, the GI50 in the experiment with A498 renal is 46 µM; with OVCAR-5 ovarian it was over 100 µM; in the experiment on MALME-3M melanoma, 18.9 µM. In addition, the TGI in the experiment with UACC-62 melanoma, with UO-31 renal, in the experiment with SK-MEL-5 melanoma, in the experiment on MDA-MB-231 breast, with CAKI-1 renal and in the experiment with HS 578T breast was over 100 µM each time. For the same compound, the TGI in the experiment with A498 renal is over 100 µM; in the experiment with OVCAR-5 ovarian, over 100 µM; in the experiment on MALME-3M melanoma, 80.6 µM.
For `NC(=NCCCC1(c2ccccc2)CCCC1)Nc1ccc(Cl)cc1`, the GI50 with UACC-62 melanoma was 1.68 µM; in the experiment with UO-31 renal, 1.5 µM; in the experiment with MOLT-4 leukemia, 1.58 µM; with SK-MEL-5 melanoma it was 1.58 µM; in the experiment on MDA-MB-231 breast, 1.6 µM; with CAKI-1 renal, 1.93 µM. For the same compound, the GI50 was 2.19 µM with HS 578T breast, 1.75 µM in the experiment on A498 renal and 1.69 µM with MALME-3M melanoma. Moreover, the TGI in the experiment on UACC-62 melanoma worked out at 3.2 µM; in the experiment on UO-31 renal, 3 µM; in the experiment on MOLT-4 leukemia it was 4.11 µM; with SK-MEL-5 melanoma, 2.93 µM; with MDA-MB-231 breast, 3.14 µM; with CAKI-1 renal it was 3.94 µM. Moreover, the TGI with HS 578T breast stood at 5.03 µM; in the experiment with A498 renal, 3.29 µM; with MALME-3M melanoma it was 3.66 µM.
`COc1c2ccoc2cc2oc(=O)ccc12`: the TGI in the experiment with UACC-62 melanoma, in the experiment with MOLT-4 leukemia, with SK-MEL-5 melanoma, in the experiment with MDA-MB-231 breast, in the experiment on CAKI-1 renal and in the experiment with HS 578T breast was over 100 µM in each case. Besides, the TGI in the experiment with A498 renal, with OVCAR-5 ovarian and with MALME-3M melanoma was over 100 µM throughout.
Consider `Cc1nc2ccccn2c1NC(=O)NNC(=S)Nc1ccc(Br)cc1`, for which the GI50 in the experiment with UACC-62 melanoma is 27.8 µM; in the experiment with UO-31 renal it was 82.5 µM; with MOLT-4 leukemia, 36.7 µM; with SK-MEL-5 melanoma it was 47.7 µM; in the experiment on MDA-MB-231 breast, 22.6 µM; with CAKI-1 renal, 29.6 µM. Also, the GI50 with HS 578T breast was 54.8 µM; in the experiment on A498 renal it was 32.8 µM; in the experiment with OVCAR-5 ovarian, 32.2 µM. For the same compound, the TGI in the experiment on UACC-62 melanoma was over 100 µM; in the experiment on UO-31 renal it was over 100 µM; in the experiment on MOLT-4 leukemia, over 100 µM; with SK-MEL-5 melanoma, over 100 µM; in the experiment with MDA-MB-231 breast, 59.1 µM; in the experiment with CAKI-1 renal, over 100 µM. Moreover, the TGI is over 100 µM with HS 578T breast, 88.1 µM with A498 renal and over 100 µM with OVCAR-5 ovarian.

(Values after PubChem BioAssay (NCI).)
